In the supplement of paper PMC6045584:
± gives the standard deviation of the averaged measurements.

Assays:
[1] = compound: Cn1ncnc1[C@H]1c2n[nH]c(=O)c3cc(F)cc(c23)N[C@@H]1c1ccc(F)cc1 [BMN-673]; test: surviving fraction relative to DMSO-only wells; higher = less growth inhibition; conditions: exposure time: 5 days
In short: (§1)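 Tumour cell lines were grown to log phase and seeded at 250–500 cells per well in 384-well plates. They were exposed continuously to inhibitors at 0.5, 1, 5, 10, 50, 100, 500 and 1000 nM for five days, beginning 24 hours after seeding. Surviving fraction is CellTiter-Glo luminescence normalised to the median of DMSO-only wells.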

[2] = compound: C[C@@H]1CN(CC(=O)Nc2ccc3c(c2)Cc2cccc(-c4cc(=O)cc(N5CCOCC5)o4)c2S3)C[C@H](C)O1; test: as above; conditions: exposure time: 5 days
In short: as §1

Test System	surviving fraction ([1]; 0.5 nM)	surviving fraction ([1]; 1 nM)	surviving fraction ([1]; 5 nM)	surviving fraction ([1]; 10 nM)	surviving fraction ([1]; 50 nM)	surviving fraction ([1]; 100 nM)	surviving fraction ([1]; 500 nM)	surviving fraction ([1]; 1000 nM)	surviving fraction ([2]; 0.5 nM)	surviving fraction ([2]; 1 nM)	surviving fraction ([2]; 5 nM)	surviving fraction ([2]; 10 nM)	surviving fraction ([2]; 50 nM)	surviving fraction ([2]; 100 nM)	surviving fraction ([2]; 500 nM)	surviving fraction ([2]; 1000 nM)
SNU475 LIVER	1.02 ± 0.034	1.01 ± 0.097	0.763 ± 0.47	0.99 ± 0.032	0.882 ± 0.087	0.851 ± 0.031	0.643 ± 0.025	0.508 ± 0.051	0.97 ± 0.022	1.02 ± 0.034	1.007 ± 0.0086	1.02 ± 0.027	0.876 ± 0.026	0.96133 ± 0.00058	0.863 ± 0.04	0.669 ± 0.036
MFM223 BREAST	1.25 ± 0.069	1.2 ± 0.073	1.07 ± 0.25	0.9232 ± 0.0025	0.805 ± 0.015	0.755 ± 0.047	0.734 ± 0.027	0.713 ± 0.072	1.17 ± 0.17	1.2 ± 0.037	1.17 ± 0.052	1.19 ± 0.02	0.935 ± 0.1	0.869 ± 0.12	0.885 ± 0.035	0.794 ± 0.1
MDAMB453 BREAST	1.1 ± 0.11	1.03 ± 0.054	1.12 ± 0.13	0.881 ± 0.057	0.724 ± 0.056	0.57 ± 0.029	0.454 ± 0.019	0.495 ± 0.044	1.02 ± 0.027	0.937 ± 0.054	0.994 ± 0.023	0.966 ± 0.035	0.937 ± 0.023	0.897 ± 0.046	0.9723 ± 0.0063	0.988 ± 0.039
JIMT1 BREAST	0.928 ± 0.041	0.913 ± 0.025	0.848 ± 0.011	0.822 ± 0.011	0.71 ± 0.035	0.617 ± 0.063	0.474 ± 0.027	0.395 ± 0.033	0.91 ± 0.034	0.924 ± 0.022	0.936 ± 0.02	0.952 ± 0.031	0.956 ± 0.013	1 ± 0.038	0.971 ± 0.03	0.887 ± 0.024
MHM BONE	1.03 ± 0.047	1 ± 0.035	1.01 ± 0.048	1.01 ± 0.051	0.997 ± 0.041	0.981 ± 0.0079	0.868 ± 0.017	0.782 ± 0.012	1.03 ± 0.024	1.01 ± 0.055	1.05 ± 0.012	1.05 ± 0.021	1.08 ± 0.0062	1.1 ± 0.018	1.08 ± 0.024	1.07 ± 0.032
HOSMNG BONE	1.07 ± 0.056	1.04 ± 0.029	0.968 ± 0.017	1.01 ± 0.019	1.03 ± 0.031	1.05 ± 0.046	0.849 ± 0.047	0.645 ± 0.023	1 ± 0.065	0.944 ± 0.013	0.982 ± 0.051	0.978 ± 0.044	1.03 ± 0.011	0.9887 ± 0.0031	1.01 ± 0.043	0.998 ± 0.056
BT20 BREAST	1.22 ± 0.014	1.15 ± 0.11	1.04 ± 0.034	0.971 ± 0.052	0.88 ± 0.035	0.797 ± 0.074	0.673 ± 0.13	0.474 ± 0.08	1.04 ± 0.052	1.13 ± 0.044	1.1 ± 0.1	1.06 ± 0.081	0.843 ± 0.11	0.894 ± 0.089	0.902 ± 0.076	0.741 ± 0.045
CAL72 BONE	1.08 ± 0.13	1.07 ± 0.027	1.07 ± 0.018	1.09 ± 0.09	1.07 ± 0.082	0.973 ± 0.22	0.776 ± 0.19	0.509 ± 0.21	1.01 ± 0.015	1.06 ± 0.03	1.03 ± 0.011	1.03 ± 0.021	0.955 ± 0.021	0.97 ± 0.0097	0.897 ± 0.026	0.811 ± 0.026
VP229 BREAST	1.09 ± 0.33	1.09 ± 0.16	1.1 ± 0.12	0.995 ± 0.091	0.969 ± 0.026	0.922 ± 0.17	0.951 ± 0.1	0.873 ± 0.19	1.03 ± 0.15	1.07 ± 0.05	1.09 ± 0.14	1.06 ± 0.07	0.9067 ± 0.0046	0.916 ± 0.14	1.11 ± 0.062	0.897 ± 0.075
CADOES1 SOFT TISSUE	0.979 ± 0.076	0.942 ± 0.05	0.745 ± 0.18	0.653 ± 0.094	0.378 ± 0.054	0.29 ± 0.027	0.135 ± 0.033	0.073 ± 0.013	0.951 ± 0.15	0.965 ± 0.065	0.974 ± 0.07	0.981 ± 0.084	1.11 ± 0.055	0.995 ± 0.1	1.01 ± 0.096	1.02 ± 0.032
ZR751 BREAST	1.23 ± 0.14	1.14 ± 0.15	1.04 ± 0.22	1 ± 0.15	1.01 ± 0.068	0.974 ± 0.11	1.04 ± 0.07	0.816 ± 0.017	1.01 ± 0.1	1.08 ± 0.19	1.02 ± 0.21	0.959 ± 0.13	0.951 ± 0.035	0.956 ± 0.076	1.06 ± 0.24	0.977 ± 0.071
HCC1954 BREAST	1.01 ± 0.17	1.34 ± 0.34	1.25 ± 0.17	1.21 ± 0.12	0.907 ± 0.038	0.804 ± 0.042	0.71 ± 0.12	0.74 ± 0.072	0.9487 ± 0.0025	0.93 ± 0.092	0.875 ± 0.086	1.03 ± 0.11	0.742 ± 0.01	0.771 ± 0.051	0.604 ± 0.09	0.504 ± 0.12
CAL120 BREAST	0.968 ± 0.033	0.915 ± 0.067	0.798 ± 0.05	0.676 ± 0.035	0.591 ± 0.014	0.506 ± 0.062	0.43 ± 0.021	0.425 ± 0.035	1.01 ± 0.029	1.02 ± 0.013	1.03 ± 0.02	1.04 ± 0.011	1.02 ± 0.022	1 ± 0.015	0.946 ± 0.046	0.87 ± 0.018
SG28 HEADNECK	1.09 ± 0.14	1.064 ± 0.0085	1.12 ± 0.13	1.06 ± 0.012	1.01 ± 0.12	0.996 ± 0.065	1.01 ± 0.15	1.01 ± 0.074	1.07 ± 0.081	1.11 ± 0.13	1.04 ± 0.093	0.986 ± 0.033	0.9 ± 0.054	0.915 ± 0.047	0.9 ± 0.1	0.87 ± 0.11
SG31 HEADNECK	1.18 ± 0.14	1.12 ± 0.028	1.08 ± 0.24	0.911 ± 0.15	0.969 ± 0.046	0.787 ± 0.09	0.916 ± 0.064	0.751 ± 0.046	0.946 ± 0.076	0.916 ± 0.1	1.06 ± 0.17	0.953 ± 0.07	0.971 ± 0.12	0.964 ± 0.09	1.08 ± 0.087	1.06 ± 0.098
OSHN BONE	1.08 ± 0.024	1.04 ± 0.016	0.996 ± 0.023	0.9107 ± 0.004	0.742 ± 0.011	0.573 ± 0.081	0.197 ± 0.012	0.145 ± 0.009	1.06 ± 0.017	1.06 ± 0.029	1.09 ± 0.016	1.07 ± 0.025	1.017 ± 0.0072	1.021 ± 0.0095	1.01 ± 0.019	0.977 ± 0.0061
SCC36 HEADNECK	1.13 ± 0.041	0.988 ± 0.087	0.95 ± 0.15	0.886 ± 0.025	0.77 ± 0.089	0.586 ± 0.0076	0.436 ± 0.056	0.352 ± 0.07	0.993 ± 0.025	1.02 ± 0.058	1.09 ± 0.086	1.03 ± 0.026	0.859 ± 0.071	0.896 ± 0.031	0.801 ± 0.045	0.798 ± 0.031
CAL51 BREAST	0.941 ± 0.037	0.807 ± 0.065	0.548 ± 0.014	0.389 ± 0.021	0.219 ± 0.026	0.146 ± 0.027	0.0603 ± 0.01	0.0523 ± 0.0019	0.954 ± 0.023	0.939 ± 0.028	1.02 ± 0.019	0.997 ± 0.069	1.01 ± 0.028	1.02 ± 0.027	0.922 ± 0.011	0.851 ± 0.026
HOS BONE	1.04 ± 0.037	1 ± 0.018	0.976 ± 0.018	0.974 ± 0.036	0.993 ± 0.04	0.96 ± 0.036	0.596 ± 0.022	0.282 ± 0.026	1.03 ± 0.041	1.02 ± 0.032	1.06 ± 0.027	1.06 ± 0.05	1.02 ± 0.039	1.01 ± 0.022	0.988 ± 0.044	0.901 ± 0.048
